Reference: publication PMC117120 (BMC Biochemistry, 2002)
Numbering of substitutions follows the chain as printed. Values joined by “and” are separate entries in the source; they are usually repeats but may differ in a detail not shown here. Identical values can stand only once.

What was measured:
wildtype mouse 5-HT3ASR = target: T1, wildtype mouse 5-HT3ASR (Mus musculus, UniProt P23979); experiment: [^3H]granisetron saturation binding, wildtype receptor
T1 sequence (P23979 24-483 isoform P23979-2 limits assumed): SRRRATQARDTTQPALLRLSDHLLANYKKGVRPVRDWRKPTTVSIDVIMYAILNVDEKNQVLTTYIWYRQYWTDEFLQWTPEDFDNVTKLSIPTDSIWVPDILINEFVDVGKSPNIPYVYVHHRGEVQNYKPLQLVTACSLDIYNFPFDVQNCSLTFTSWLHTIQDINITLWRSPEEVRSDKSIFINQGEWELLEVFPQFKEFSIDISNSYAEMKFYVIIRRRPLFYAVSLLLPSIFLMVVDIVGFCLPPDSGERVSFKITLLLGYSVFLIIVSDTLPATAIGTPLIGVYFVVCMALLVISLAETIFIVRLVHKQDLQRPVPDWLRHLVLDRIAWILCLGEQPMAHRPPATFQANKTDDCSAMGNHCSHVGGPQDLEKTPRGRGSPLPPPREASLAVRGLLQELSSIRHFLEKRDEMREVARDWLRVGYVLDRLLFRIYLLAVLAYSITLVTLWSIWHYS

[1] = target: T2, V141A mutant mouse 5-HT3ASR (Mus musculus, UniProt P23979, V142A); experiment: [^3H]granisetron saturation binding, V141A receptor; conditions: ± SE
T2 sequence (P23979 24-483 isoform P23979-2 V142A): T1 sequence (P23979 24-483 isoform P23979-2 limits assumed) with V119A

[2] = target: T3, Q150A mutant mouse 5-HT3ASR (Mus musculus, UniProt P23979, Q151A); experiment: [^3H]granisetron saturation binding, Q150A receptor; conditions: ± SE
T3 sequence (P23979 24-483 isoform P23979-2 Q151A): T1 sequence (P23979 24-483 isoform P23979-2 limits assumed) with Q128A

Bmax (+ protease inhibitor) (wildtype mouse 5-HT3ASR; membranes prepared in the presence of protease inhibitor cocktail): 3.1 ± 0.11 pmoles/mg protein | Hill coefficient (n) (wildtype mouse 5-HT3ASR; ± SE): 1 ± 0.12 | Bmax [1]: 0.32 ± .04 pmol/mg protein | Hill coefficient (n) [1]: 1.3 ± 0.22 | Bmax [2]: 0.56 ± .09 pmol/mg protein
SMILES: CN1C2CCCC1CC(NC(=O)c1nn(C)c3ccccc13)C2 (stereo not drawn) [[^3H]granisetron]
Bmax (wildtype mouse 5-HT3ASR; absence of protease inhibitor, ± SE): 3.2 ± 0.13 pmol/mg protein and 3.2 ± .13 pmol/mg protein
